Holding throughout (assay type): cell-based, human
One assay deals with MDA-MB231 cells. Kind of assay: Cell cycle distribution of MDA-MB231 cells by flow cytometry. The protocol:
Cell cycle analysis was performed to further study the effects of inhibition of Notch signaling in breast cancer cells. MDA-MB231 cells were treated overnight with 0-10 μM z-Leu-Leu-Nle-CHO prior to cell cycle distribution analysis by flow cytometry. Alternatively, MDA-MB231 cells were transfected with Notch-1, Notch-4 or control siRNA as described above in Example 15. For cell cycle distribution analysis by flow cytometry, z-Leu-Leu-Nle-CHO- or siRNA-treated cells (10^6) were pelleted and washed twice in PBS. Cells were then fixed in 80% methanol and stored at −20° C. until use. Fixed cells were pelleted and washed twice in PBS, and resuspended in 50 μl PI:PBS solution (50 μg/ml PI). After RNase A (100 μg/ml) treatment at 37° C. for an hour, cells were analyzed by flow cytometry using a FACScalibur instrument.

In the next assay the test system is C8161 melanoma cells. Kind of assay: Proliferating versus serum-deprived C8161 melanoma cells, NOXA and apoptosis. The settings on record: for NOXA induction: proliferating (10% FCS) or serum-deprived (no serum) C8161. The protocol:
C8161 melanoma cells were induced into a relatively quiescent state by serum withdrawal. Proliferation assays were conducted in the presence or absence of 10% fetal calf serum (FCS) by manual counting of melanoma cells in triplicate wells on days 0, 1, 2 and 3. […] By phase contrast microscopy, the withdrawal of FCS arrested the cells (data not shown). This growth arrest was confirmed by Western blots of the cells that were maintained as either rapidly proliferating cells in the presence of 10% FCS or were growth arrested by serum withdrawal and washing with PBS for either 1 or 2 days. Whole cell extracts were prepared and Western blot analysis was performed as described above in Example 8 using antibodies to NOXA, p21 (SC-817, Santa Cruz Biotechnology, Santa Cruz, Calif.) and β-actin as described here and above.
Growth arrest induced by serum withdrawal was confirmed by induction of p21. […] Thus, not only can proteasome inhibitors selectively induce NOXA and kill melanoma cells and not kill melanocytes independent of p53, but melanoma cells are susceptible to killing even when maintained in a relatively quiescent state in vitro.

For a further assay, the system named is melanoma cell lines. The assay can be described thus: Proteasome inhibitors, apoptosis of melanoma cell lines (Annexin V FITC flow cytometry). The protocol:
The proteasome inhibitors lactacystin, MG-132, and bortezomib were evaluated for the ability to induce apoptosis in malignant melanoma cell lines (n=3) including an early passage line, RJ002L. MG-132 was obtained from Calbiochem (La Jolla, Calif.) and dissolved in DMSO. Lactacystin was purchased from Sigma Chemical Co. (St. Louis, Mo.) and dissolved in PBS. Bortezomib was obtained from a pharmacy as VELCADE (bortezomib) for Injection from a single use vial for intravenous use only (Millennium Pharmaceuticals, Cambridge, Mass.). A cell line with wild-type p53 (RJ002L) and two melanoma cell lines with mutant p53 alleles (C8161 and MUM2B) were included in this study. Two additional melanoma cell lines were also used: cutaneous SK-MeI-28 cells and primary, early passage MG012 cells. In addition, five normal melanocyte culture cell lines (MC-005, MC-006, MC-008, MC-009 and MC-011) were examined. Prior to testing, the melanoma cell lines were maintained in RPMI supplemented with 10% FBS. Normal human melanocytes were isolated from neonatal foreskins as previously described (Qin J et al., 2004, Mol Cancer Ther 3:895-902, 2004) and cultured with medium 154 containing growth supplements (Cascade Biologics, Portland, Oreg.).
To assess the effect of proteasome inhibitors on the cell lines, the cells were grown in suitable culture media as described above. Highly proliferating cells (i.e., cells that had reached approximately 30% confluency) were exposed to the inhibitors as described below. The culture media was replenished with media containing proteasome inhibitors at various concentrations and the cells were incubated for 24 hours prior to harvesting the cells for further analysis.
Following treatment with the proteasome inhibitors, the melanoma and melanocyte cell cultures were assayed for apoptotic cells using the APO TARGET Annexin V FITC staining kit (Biosource, Camarillo, Calif.) according to the manufacturer's instructions followed by flow cytometric analysis using FACScaliber (Becton Dickinson, Palo Alto, Calif.) as described in Qin, J. et al., 2001, Nat Med 7: 385-386. In some cases, cell cycle and apoptosis analysis was measured using propidium iodide staining and flow cytometry as described. Cells with DNA content less than the G0 amount of untreated cells were considered apoptotic. For cell analysis, DNA histograms were analyzed using MultiCycle for Windows (Phoenix Flow Systems, San Diego, Calif.) as described in Denning, M. F. et al., 1998, J Biol Chem 273: 29995-30002.
(In general: In flow cytometry, cells or beads pass a laser one at a time.)

Square brackets hold non-standard residues; d marks the D form. Peptide text beside a SMILES is read from it. * marks the point of attachment. Nle = CCCC[C@H](N)C(=O)O; Cbz = O=C(OCc1ccccc1)* Where only a bound is given, the exact number is not on record here.

On to “5′-AAGTGTCTGAGGCCAGCAAGA-3′ [Notch-1 siRNA]”, for which the cell cycle distribution result with MDA-MB231 cells (siRNA transfection) was “accumulation of cells in G2/M was maximal at 24 hours”.

Turning to `CC(C)C[C@@H](C=O)NC(=O)[C@H](CC(C)C)NC(=O)[C@H](CC(C)C)NC(=O)OCc1ccccc1` [MG-132, benzoxycarbonyl-Leucyl-Leucyl-Leucyl-aldehyde] (Cbz-Leu-Leu-Leu-aldehyde), in the assay on C8161 melanoma cells, the NOXA induction result is reported as “trigger prominent NOXA induction”. The “apoptotic response to increasing concentrations” value in the assay on melanoma cell lines (RJ002L, MG012, C8161, MUM2B, SK-MeI-28, 1-10 μM, 24 hrs) is on record as “significantly enhanced apoptotic responses”.

`CC(C)C[C@H](NC(=O)[C@H](Cc1ccccc1)NC(=O)c1cnccn1)B(O)O` [bortezomib, N-(2-pyrazine)carbonyl-L-phenylalanine-L-leucine boronic acid]: the NOXA induction result with C8161 melanoma cells is reported as “trigger prominent NOXA induction”. Further, the “cell death by apoptosis in serum-deprived cells” value with C8161 melanoma cells (serum-deprived versus proliferating C8161) was “comparable to that seen in bortezomib-treated proliferating melanoma cells”. Also, the “concentration triggering significant apoptotic response (p<0.05)” value in the assay with melanoma cell lines (all melanoma cell lines examined) was ≥ 0.1 µM. Further, the dead cells in the assay on melanoma cell lines (all melanoma cell lines tested, 10 μM, 24 hrs continuous exposure) was 30-70%.

Turning to `CCCC[C@@H](C=O)NC(=O)[C@H](CC(C)C)NC(=O)[C@H](CC(C)C)NC(=O)OCc1ccccc1` [z-Leu-Leu-Nle-CHO, N-benzyloxycarbonyl-leucyl-leucyl-norleucinal] (Cbz-Leu-Leu-[Nle]-aldehyde), in the assay with MDA-MB231 cells (0-10 μM overnight), the cell cycle distribution result is listed as “accumulation of cells in the G2/M stage of the cell cycle”.
